Measurements published in article PMC12040169 (PLOS Biology, 2025).

Assay: in vitro
Details: human, hela cells, % viability

Row | Compound | viability at 28.5 h, 10 µM [%] | viability at 28.5 h, 10 µM (bulk resorufin, single well) [%]
1 | NS(=O)(=O)c1ccc(NC(=O)CN2CCN(c3ccc([N+](=O)[O-])cc3)CC2)cc1 [CBK266232] | 96.8 | 
2 | Cc1ccc([N+](=O)[O-])cc1S(=O)(=O)NCC(=O)O [CBK266234] | 94.7 | 
3 | COc1ccc(-c2cc(C(F)(F)F)nc(S(=O)(=O)CCC(=O)Nc3ccc(C)cc3)n2)cc1 [CBK266235] | 105 | 
4 | CC1Cc2cc(C(=O)C3=C(O)C(=O)N(Cc4ccco4)C3c3cccnc3)ccc2O1 (centres unmarked) [CBK266236] | 104 | 
5 | O=C(CSc1nc(-c2ccco2)cc(C(F)(F)F)n1)Nc1ccc(C(=O)N2CCCCC2)cc1 [CBK266238] | 101 | 
6 | Cc1ccc(S(=O)(=O)N2CCN(CC(O)COc3ccc4ccccc4c3)CC2)cc1 (centres unmarked) [CBK266239] | 97.7 | 
7 | Cc1nnc(S)n1CC(=O)n1c2c(c3ccccc31)CCCC2 [CBK266244] | 106 | 
8 | O=C(Nc1ccc(I)cc1C(=O)NCCN1CCOCC1)c1ccccc1Cl [CBK266245] | 101 | 
9 | Cc1cc(NC(=O)CSc2nc(-c3ccc(F)cc3)cc(C(F)(F)F)n2)n(-c2ccccc2)n1 [CBK266248] | 102 | 
10 | COc1cc(NC(=S)N2CCN(c3cc(Cl)ccc3C)CC2)cc(OC)c1 [CBK266252] | 100 | 
11 | CNC1(c2nnnn2CCOC(=O)Nc2ccc(Cl)cc2)CCCC1 [CBK266253] | 102 | 
12 | CN1CCN(c2ccc(NC(=S)NC(=O)c3cc(Br)ccc3Cl)cc2)CC1 [CBK266254C] | 96.2 | 
13 | Brc1ccc(-n2c(SC/C=C/c3ccccc3)nnc2-c2ccncc2)cc1 [CBK266257] | 105 | 
14 | CC1CCN(Cc2c(O)ccc3c(=O)c(-c4cccc(Cl)c4)c(C(F)(F)F)oc23)CC1 [CBK266258] | 103 | 
15 | Cc1ccc(C(=O)N2CCN(S(=O)(=O)c3cccc([N+](=O)[O-])c3)CC2)cc1 [CBK266259] | 102 | 
16 | Cc1ccc(S(=O)(=O)NC(C)C(=O)Nc2ccc(C)c(Cl)c2)cc1 (centres unmarked) [CBK266263] | 98 | 

Row | Compound | viability at 28.5 h, 10 µM [%] | viability at 28.5 h, 10 µM (bulk resorufin, single well) [%]
17 | Cn1c(SCC(=O)N2CCN(c3cccc(Cl)c3)CC2)nnc1-c1cccc([N+](=O)[O-])c1 [CBK266264] | 97.8 | 
18 | CN1CCN(C(=O)c2ccccc2N(Cc2ccccc2)S(C)(=O)=O)CC1 [CBK266267] | 101 | 
19 | CC(=O)Nc1ccccc1-c1nc2ccccc2nc1OCC(=O)c1ccc(Cl)cc1 [CBK266269] | 93.6 | 
20 | O=C(Nc1cc2nn(-c3ccccc3)nc2cc1Cl)c1ccc(-c2cccc([N+](=O)[O-])c2)o1 [CBK266271] | 94 | 
21 | Cc1sc(NC(=S)NC(=O)c2ccco2)c(C(N)=O)c1C [CBK266272] | 98.9 | 
22 | O=C(Nc1cccc(C(F)(F)F)c1)c1ccc(N2CCNCC2)c([N+](=O)[O-])c1 [CBK266274] | 100 | 
23 | COc1ccc(Cl)cc1C(=O)O/N=C(\N)Cc1cccc2ccccc12 [CBK266275] | 98.3 | 
24 | O=C(CSc1nnc(CCc2ccccc2)n1-c1ccc(Cl)cc1)c1ccccc1 [CBK266277] | 88.9 | 
25 | O=C(Nc1ccccc1-c1nc2ccccc2s1)c1cc(Br)ccc1Cl [CBK266280] | 94.9 | 
26 | Cc1ccc2oc(C(=O)Nc3sc4c(c3C(=O)NCC3CCCO3)CCC4)c(C)c2c1 (centres unmarked) [CBK266282] | 111 | 
27 | Cc1nc(S)nc(O)c1Cc1ccc(C(=O)O)o1 [CBK266284] | 104 | 
28 | Cc1nnc(N2C(=O)c3oc4ccccc4c(=O)c3C2c2ccc(OCc3ccccc3)cc2)s1 (centres unmarked) [CBK266287] | 94.9 | 
29 | N#C/C(=C\c1ccc(-c2ccc(S(N)(=O)=O)cc2)o1)c1nc2ncc(Br)cc2[nH]1 [CBK266288] | 97.6 | 
30 | Cc1ccccc1N1C(=O)NC(=O)C(CCc2ccncc2)(Cc2ccc3c(c2)OCO3)C1=O (centres unmarked) [CBK266289] |  | 92
31 | CCn1c(SCC(=O)N2c3ccccc3Sc3ccccc32)nnc1C(C)Oc1ccccc1 (centres unmarked) [CBK266290] | 105 | 
32 | c1csc(CSc2nnc3sc4ccccc4n23)c1 [CBK266291] | 87.9 | 
